# Key:
# [1] = Partition of model by-product compounds between Carrier liquid 2 (poly-alpha-olefin) and organic solvent; assay type: physicochemical; conditions: log {[compound]carrier liquid/[compound]organic solvent}, 2 mL solvent + 3 mL carrier liquid solution, shaken 60 min at room temperature
# Procedure: (§1) Six compounds were dissolved in two different carrier liquids. The six compounds were exemplary for the by-products that may be obtained when wood is subjected to hydrolysis by the reaction of concentrated hydrochloric acid and that may be obtained when the hydrolyzate thus obtained in treated with the carrier liquid. The compounds were • a) betulin, a triterpene having a pentacyclic structure and two hydroxyl groups, • b) abietic acid, i.e. a diterpene compound derived from four isoprene units and a having one carboxylic acid group, • c) linoleic acid, a fatty aid having 18 carbon atoms and two unsaturated bonds, • d) 1-eicosanol, a linear alkanol having 20 carbon atoms, • e) sitosterol, a phytosterol with a chemical structure similar to cholesterol, and • f) limonene, a cyclic terpene having two unsaturated bonds.
# Carrier liquid 2 is a poly-alpha-olefin having a kinematic viscosity of 1240 mm^2/s at 40° C. and a kinematic viscosity of 100 mm^2/s at 100° C. (ASTM D445). It has a flash point of 283° C. (ASTM D92). Carrier liquid 2 is immiscible with water.
# (§2) In each experiment, 2 mL of an organic solvent was added to 3 mL of the carrier liquid solutions. The admixture obtained were shaken for 60 min at room temperature. The concentration of each compound in each of the carrier liquids was determined and the partition coefficient was calculated. By partition coefficient P is understood the ratio of concentrations of each of the compounds in an organic solvent and in a carrier liquid. The partition coefficient is expressed as
# (§3) log P, being log {[compound]carrier liquid/[compound]organic solvent}.
# (§4) The partition coefficients are shown in Table 2 for Carrier liquid 1 and in Table 3 for Carrier liquid 2.
# [2] = Partition of model by-product compounds between Carrier liquid 1 (paraffin oil) and organic solvent; assay type: physicochemical; conditions: log {[compound]carrier liquid/[compound]organic solvent}, 2 mL solvent + 3 mL carrier liquid solution, shaken 60 min at room temperature
# Procedure: as §1
# Carrier liquid 1 is a paraffin oil with a boiling range of 388 to 709° C. and a kinematic viscosity of 481 mm^2/s at 40° C. and a kinematic viscosity of about 31 at 100° C. (ASTM D445). Carrier liquid 1 is immiscible with water.
# as §2, §3, §4
compound,measurement,setting,value
C=C(C)[C@@H]1CC[C@]2(CO)CC[C@]3(C)[C@H](CC[C@@H]4[C@@]5(C)CC[C@H](O)C(C)(C)[C@@H]5CC[C@]43C)[C@@H]12 [betulin],"Partition coefficient with Carrier liquid 2, Log P","[1]; Exp. No. 4, solvent methanol",−0.36
same,"Partition coefficient with Carrier liquid 2, Log P","[1]; Exp. No. 5, solvent butanol",−1.09
same,"Partition coefficient with Carrier liquid 2, Log P","[1]; Exp. No. 6, solvent acetone",−1.03
CC[C@H](CC[C@@H](C)[C@H]1CC[C@H]2[C@@H]3CC=C4C[C@@H](O)CC[C@]4(C)[C@H]3CC[C@]12C)C(C)C [sitosterol],"Partition coefficient with Carrier liquid 1, Log P","[2]; Exp. No. 1, solvent methanol",0.35
same,"Partition coefficient with Carrier liquid 1, Log P","[2]; Exp. No. 2, solvent butanol",−0.45
same,"Partition coefficient with Carrier liquid 1, Log P","[2]; Exp. No. 3, solvent acetone",0.16
same,"Partition coefficient with Carrier liquid 2, Log P","[1]; Exp. No. 4, solvent methanol",−0.05
same,"Partition coefficient with Carrier liquid 2, Log P","[1]; Exp. No. 5, solvent butanol",−0.63
same,"Partition coefficient with Carrier liquid 2, Log P","[1]; Exp. No. 6, solvent acetone",−0.10

# — patent publication US20200299791A1, “Process for the Production of a Saccharide Product from an Aqueous Solution” (Avantium Knowledge Centre B.V., priority 2015, published 2020)
